Reference: PMC12493155, “A yeast-based in vivo assay complements in vitro and in silico approaches to characterize sterol-binding by Saccharomyces cerevisiae Lam/Ltc proteins” (The Journal of Biological Chemistry, 2025)
Counter-ions that a name gives are not always drawn.

Columns and labels:
[1] = biological target: T1, Pry1 (Saccharomyces cerevisiae, UniProt P47032); experiment: Microscale thermophoresis (MST) ligand binding; conditions: Pry1, pH 7.5, 50 nM protein
T1 construct: made in house; host or cells: E. coli BL21
T1 sequence (P47032 20-299): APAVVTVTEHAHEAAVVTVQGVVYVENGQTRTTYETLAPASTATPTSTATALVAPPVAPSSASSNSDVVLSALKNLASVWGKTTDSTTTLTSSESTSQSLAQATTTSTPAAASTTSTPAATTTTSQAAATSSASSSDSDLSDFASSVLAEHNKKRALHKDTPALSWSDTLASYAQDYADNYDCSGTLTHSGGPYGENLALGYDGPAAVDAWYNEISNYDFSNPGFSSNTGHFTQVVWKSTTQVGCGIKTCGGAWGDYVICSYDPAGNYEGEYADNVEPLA
Method: (§1) This polyhistidine-tagged protein is site-specific fluorescently labeled (RED-tris-NTA, green star). The labeled protein is incubated with varying concentrations of ligand, loaded into glass capillaries, the capillaries are locally heated with an infrared (IR) laser, generating a temperature gradient, and the rate of temperature-induced diffusion of the ligand-bound protein was recorded and plotted as a function of ligand concentration. B, sterol binding by Pry1, NPC2, Osh4, and STARD1 measured by MST. […] Binding by Pry1, Osh4 was assessed at pH 7.5, STARD1 at pH 8.5, and NPC2 binding affinity was determined at pH 5.5. […] Data shown in panelB represent the mean ± SD of three independent experiments. MST, microscale thermophoresis; NPC2, Niemann-Pick type C2; Pry, pathogen-related in yeast; STARD1, steroidogenic acute regulatory protein 1.
(§2) Purified proteins were fluorescently labeled using the RED-tris-NTA His tag protein labeling kit (NanoTemper Technologies) ([52]). […] Binding by Pry1, Osh4, and the StARkin domains was assessed at pH 7.5, STARD1 at pH 8.5, and NPC2 binding affinity was determined at pH 5.5.
(§3) Samples were centrifuged for 5 min at 15,000g at 4 °C and loaded into standard MST capillaries. The dissociation constant Kd was determined by plotting the fraction of ligand-bound protein against the logarithm of the ligand concentrations, using Prism software (GraphPad).

[2] = biological target: T2, STARD1 (Homo sapiens, UniProt P49675); experiment: Microscale thermophoresis (MST) ligand binding; conditions: STARD1, pH 8.5, 50 nM protein
T2 construct: made in house; host or cells: E. coli BL21
T2 sequence (P49675 64-285): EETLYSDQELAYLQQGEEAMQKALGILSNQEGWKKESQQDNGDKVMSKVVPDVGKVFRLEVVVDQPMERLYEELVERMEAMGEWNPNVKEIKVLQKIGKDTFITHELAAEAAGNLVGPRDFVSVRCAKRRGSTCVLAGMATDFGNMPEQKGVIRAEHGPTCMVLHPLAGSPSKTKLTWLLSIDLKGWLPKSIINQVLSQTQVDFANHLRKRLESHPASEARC
Method: as §1, §2, §3

[3] = biological target: T3, Osh4 (Saccharomyces cerevisiae, UniProt P35844); experiment: Microscale thermophoresis (MST) ligand binding; conditions: Osh4, pH 7.5, 50 nM protein
T3 construct: made in house; host or cells: E. coli BL21
Method: as §1, §2, §3

[4] = biological target: T4, Lam6 (ΔTMD) (Saccharomyces cerevisiae, UniProt Q08001); experiment: Microscale thermophoresis (MST) ligand binding; conditions: soluble Lam6 (ΔTMD)
T4 construct: Lam5 (1–633 aa), and Lam6 (1–621 aa); made in house; host or cells: E. coli BL21
T4 sequence (Q08001 1-621): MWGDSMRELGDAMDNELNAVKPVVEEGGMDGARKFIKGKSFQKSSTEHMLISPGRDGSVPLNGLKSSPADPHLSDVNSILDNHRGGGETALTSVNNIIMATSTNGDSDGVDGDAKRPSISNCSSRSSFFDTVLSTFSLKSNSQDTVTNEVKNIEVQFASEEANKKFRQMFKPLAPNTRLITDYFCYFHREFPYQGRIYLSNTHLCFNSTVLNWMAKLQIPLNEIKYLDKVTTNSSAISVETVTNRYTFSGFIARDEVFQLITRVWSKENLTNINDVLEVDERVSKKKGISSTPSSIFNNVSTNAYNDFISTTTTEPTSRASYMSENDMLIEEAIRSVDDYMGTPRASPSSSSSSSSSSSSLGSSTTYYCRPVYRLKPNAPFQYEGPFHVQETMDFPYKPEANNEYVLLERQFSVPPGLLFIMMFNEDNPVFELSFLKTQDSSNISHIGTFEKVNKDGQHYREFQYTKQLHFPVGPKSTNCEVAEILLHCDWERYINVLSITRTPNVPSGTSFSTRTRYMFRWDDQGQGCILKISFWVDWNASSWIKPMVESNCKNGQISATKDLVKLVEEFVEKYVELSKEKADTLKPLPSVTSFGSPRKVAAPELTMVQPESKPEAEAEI
Source text: (§4) To corroborate these in vivo findings, we expressed soluble versions (ΔTMD) of Lam5 and Lam6 as polyhistidine-tagged proteins and assessed their sterol binding capacity using MST.

[5] = biological target: T5, Lam5 (ΔTMD) (Saccharomyces cerevisiae, UniProt P43560); experiment: Microscale thermophoresis (MST) ligand binding; conditions: soluble Lam5 (ΔTMD)
T5 construct: Lam5 (1–633 aa), and Lam6 (1–621 aa); made in house; host or cells: E. coli BL21
T5 sequence (P43560 1-633): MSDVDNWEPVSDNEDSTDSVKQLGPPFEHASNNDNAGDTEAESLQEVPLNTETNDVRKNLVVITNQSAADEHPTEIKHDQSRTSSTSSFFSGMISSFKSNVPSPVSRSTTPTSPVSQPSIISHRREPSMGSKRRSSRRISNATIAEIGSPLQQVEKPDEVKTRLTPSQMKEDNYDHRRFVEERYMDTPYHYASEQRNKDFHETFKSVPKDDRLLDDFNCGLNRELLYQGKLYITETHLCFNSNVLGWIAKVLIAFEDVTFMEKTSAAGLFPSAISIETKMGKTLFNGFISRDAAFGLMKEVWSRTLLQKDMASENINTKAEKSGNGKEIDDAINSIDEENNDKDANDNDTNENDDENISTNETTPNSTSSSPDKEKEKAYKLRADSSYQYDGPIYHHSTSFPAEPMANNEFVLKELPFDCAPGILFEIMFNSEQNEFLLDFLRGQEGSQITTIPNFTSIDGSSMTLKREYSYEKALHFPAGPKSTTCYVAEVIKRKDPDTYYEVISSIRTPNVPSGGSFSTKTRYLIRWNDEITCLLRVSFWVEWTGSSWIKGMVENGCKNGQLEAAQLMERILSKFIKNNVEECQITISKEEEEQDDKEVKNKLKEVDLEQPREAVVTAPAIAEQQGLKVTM
Source text: as §4

[6] = biological target: T6, Sip3^StARkin (Saccharomyces cerevisiae, UniProt P38717); experiment: biochemical; assay type: binding
T6 construct: Sip3^StARkin (733–1002 aa, 32.5 kDa); made in house; host or cells: Lactococcus lactis DML1
T6 sequence (P38717 733-1002): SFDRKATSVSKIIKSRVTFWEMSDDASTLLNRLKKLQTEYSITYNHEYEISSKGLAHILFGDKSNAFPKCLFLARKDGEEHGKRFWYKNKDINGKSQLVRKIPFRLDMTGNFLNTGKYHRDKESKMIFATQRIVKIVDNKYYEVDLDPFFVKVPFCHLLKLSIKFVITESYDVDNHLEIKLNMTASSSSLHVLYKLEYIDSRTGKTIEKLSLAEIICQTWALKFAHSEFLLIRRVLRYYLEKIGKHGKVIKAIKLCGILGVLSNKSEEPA
Method: (§5) To further characterize these domains, we expressed and purified Ysp1^StARkin, Sip3^StARkin, Lam4^StARkin1, and Lam4^StARkin2 from bacterial cells and assessed their sterol-binding affinities using MST.
as §2, §3

[7] = biological target: T7, Lam4^StARkin1 (Saccharomyces cerevisiae, UniProt P38800); experiment: Microscale thermophoresis (MST) ligand binding; conditions: Lam4^StARkin1, pH 7.5
T7 construct: both StARkin domains of Lam4 (StARkin1, 758–930 aa, 20.3 kDa); made in house; host or cells: E. coli BL21
T7 sequence (P38800 758-930): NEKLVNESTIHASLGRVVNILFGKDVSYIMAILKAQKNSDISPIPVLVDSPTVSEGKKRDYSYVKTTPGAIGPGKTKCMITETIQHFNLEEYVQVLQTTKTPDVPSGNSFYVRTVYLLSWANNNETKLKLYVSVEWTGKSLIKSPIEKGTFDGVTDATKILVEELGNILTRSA
Source text: as §5

[8] = biological target: T8, Ysp1^StARkin (Saccharomyces cerevisiae, UniProt P38851); experiment: Microscale thermophoresis (MST) ligand binding; conditions: pH 7.5
T8 construct: Ysp1^StARkin (765–978 aa, 26.9 kDa); made in house; host or cells: E. coli BL21
T8 sequence (P38851 765-978): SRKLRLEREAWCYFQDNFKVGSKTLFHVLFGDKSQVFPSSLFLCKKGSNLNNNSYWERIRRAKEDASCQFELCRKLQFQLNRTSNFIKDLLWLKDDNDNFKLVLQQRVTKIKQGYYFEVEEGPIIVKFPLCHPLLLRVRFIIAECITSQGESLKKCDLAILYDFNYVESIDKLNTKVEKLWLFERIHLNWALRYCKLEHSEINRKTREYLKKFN
Source text: as §5

[9] = biological target: T9, Lam4^StARkin2 (Saccharomyces cerevisiae, UniProt P38800); experiment: Microscale thermophoresis (MST) ligand binding; conditions: Lam4^StARkin2, pH 7.5
T9 construct: StARkin2, 967–1139 aa, 34.6 kDa; made in house; host or cells: E. coli BL21
T9 sequence (P38800 967-1139): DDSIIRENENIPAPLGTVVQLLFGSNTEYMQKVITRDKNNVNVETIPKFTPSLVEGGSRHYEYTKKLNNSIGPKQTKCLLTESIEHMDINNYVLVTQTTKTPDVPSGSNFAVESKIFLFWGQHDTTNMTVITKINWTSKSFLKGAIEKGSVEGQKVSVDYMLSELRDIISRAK
Source text: as §5

[10] = biological target: T10, NPC2 (Homo sapiens, UniProt P61916); experiment: In vitro radioligand binding assay with [3H]-cholesterol; conditions: NPC2, pH 5.5, 100 pmol protein
T10 construct: made in house; host or cells: E. coli
T10 sequence (P61916 20-151): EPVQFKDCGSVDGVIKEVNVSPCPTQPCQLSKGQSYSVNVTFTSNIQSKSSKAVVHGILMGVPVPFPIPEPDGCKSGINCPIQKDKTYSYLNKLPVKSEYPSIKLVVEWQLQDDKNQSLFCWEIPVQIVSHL
Source text: (§6) To validate these in vivo findings with independent in vitro approaches, Pry1, NPC2, Osh4, and STARD1 were expressed as C terminally polyhistidine-tagged proteins in Escherichia coli and purified using Ni^2+-NTA agarose beads. […] Protein-bound radioligand was separated from unbound ligand by absorption to an ion-exchange matrix ([13], [51]) (Fig. 2A).
(§7) Schematic representation of the workflow of the in vitro lipid binding assay. Purified proteins (blue, 100 pmol), different concentrations of radiolabeled [^3H]-cholesterol (green, 0–400 pmol) are incubated together to allow binding. Proteins were separated from unbound ligand by adsorption to an ion exchange matrix (gray), followed by washing steps. The protein-bound ligand is then eluted and quantified by liquid scintillation counting. Nonspecific binding is assessed in parallel by performing the assay in the absence of protein.
(§8) The in vitro radioligand binding assay was performed essentially as previously described ([13], [39]). Purified proteins (100 pmol) were incubated with 100 to 400 pmol of [^3H]-cholesterol (1 mCi/ml, specific activity 50 Ci/mmol; American Radiolabeled Chemicals, Inc), in binding buffer for 1 h at 30 °C. The pH of the binding buffer was adjusted based on the isoelectric point of the protein: for Pry1 and Osh4, 20 mM Tris (pH 7.5), 30 mM NaCl; for STARD1, the same buffer at pH 8.5; and for NPC2, 20 mM potassium acetate (pH 5.5), 30 mM NaCl.
(§9) Proteins were then separated from unbound ligand by adsorption to SP Sepharose (GE Healthcare) beads for NPC2, and to Q Sepharose beads (GE Healthcare) beads for all other proteins. Beads were washed and proteins were eluted with binding buffer containing 1 M NaCl. Protein-bound radioligand was quantified by scintillation counting. Ion exchange beads without protein were used to define nonspecific binding. Data were analyzed using Prism software (GraphPad) and are presented as the mean ± SD from three independent experiments.

[11] = biological target: T1, Pry1; experiment: as above; conditions: Pry1, pH 7.5, 100 pmol protein
Source text: as §6, §7, §8, §9

[12] = biological target: T3, Osh4; experiment: as above; conditions: Osh4, pH 7.5, 100 pmol protein
Source text: as §6, §7, §8, §9

[13] = biological target: T11, StARkin domain of Lam6 (Saccharomyces cerevisiae, UniProt Q08001); experiment: MST protein-liposome binding; conditions: Fig. 7F, StARkin domain of Lam6, DOPC/DOPE 80/20 mol% liposomes
T11 construct: Lam6^StARkin (401–579 aa, 22 kDa); made in house; host or cells: Lactococcus lactis DML1
T11 sequence (Q08001 401-579): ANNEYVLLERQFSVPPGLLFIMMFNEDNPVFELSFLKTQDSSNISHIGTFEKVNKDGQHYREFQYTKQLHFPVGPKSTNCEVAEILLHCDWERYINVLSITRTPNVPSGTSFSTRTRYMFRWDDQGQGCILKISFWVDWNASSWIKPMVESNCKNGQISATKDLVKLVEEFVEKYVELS
Method: To test whether the GRAM domain of Lam6 could function as a coincidence detector recognizing both PS and ergosterol simultaneously, as observed with the GRAM domain of Aster-B/GRAM1b, we assessed liposome binding by isolated GRAM and StARkin domains ([58], [60]).
Lipids were dried from chloroform stock solutions using a rotary evaporator or under a gentle nitrogen gas stream. The dried lipid film was resuspended in 1 ml liposome buffer (25 mM Tris (pH 7.5), 50 mM NaCl) to a final concentration of 2 mM phospholipids. The phospholipid suspension was then subjected to ten freeze-thaw cycles, alternating between liquid nitrogen and a 55 °C water bath.
The resulting multilamellar liposomes were extruded nineteen times through a polycarbonate filter of 0.8 μm pore size to generate large unilamellar vesicles.

In the case of `CC(C)CCC[C@@H](C)[C@H]1CC[C@H]2[C@@H]3CC=C4C[C@@H](OS(=O)(=O)O)CC[C@]4(C)[C@H]3CC[C@]12C` [cholesterol sulfate], the Kd [1] is reported as 1750 nM, the Kd [2] is reported as 64 nM and the Kd [3] is reported as 1690 nM. For the same molecule, the Kd [4] was 90 nM, the Kd [5] was 290 nM and the Kd [6] was 530 nM. It also gave a Kd [7] of 71 nM, a Kd [8] of 47 nM and a Kd [9] of 340 nM.
`CC(C)CCC[C@@H](C)[C@H]1CC[C@H]2[C@@H]3CC=C4C[C@@H](O)CC[C@]4(C)[C@H]3CC[C@]12C` [cholesterol] showed a Kd [10] of 1600 nM, a Kd [11] of 2400 nM and a Kd [12] of 2300 nM.
For `CC(C)[C@@H](C)/C=C/[C@@H](C)[C@H]1CC[C@H]2C3=CC=C4C[C@@H](O)CC[C@]4(C)[C@H]3CC[C@]12C` [ergosterol], the Kd [13] was 8600 ± 3400 nM.
